Literature values in paper PMC7544826 (Communications Biology, 2020).

Test system: Notum
Set-up: method as in PMID 31876313
Details: read-out: IC50, Notum inhibition (reported potency); cited from earlier work

COc1ccc2[nH]cc(CCNC(C)=O)c2c1 [melatonin]
IC50: 75 µM
